Assay results reported in patent US20250257061A1, “COMPOSITIONS AND METHODS FOR TREATING CANCER AND REDUCING WNT MEDIATED EFFECTS” (StemSynergy Therapeutics, Inc., priority 2024, published 2025).
Like-named read-outs stand apart in the source and are kept apart here.

What was measured:
[1] = test system: Wnt reporter (TCF/LEF1 promoter); test: HEK STF293 Wnt reporter (TOPFlash) luciferase assay, Steady Glo normalised to Cell Titer; assay type: cell-based, human; conditions: Examples for Formulae (IV), (V), (VI), and (VII), HEK STF293 cells, Wnt3a-conditioned media, read-out: TOPFlash IC50 category
Description: All compounds were tested using the human cell line HEK STF293. This cell line carries a Wnt reporter (TCF/LEF1 promoter), which drives expression of the firefly luciferase protein. The level of Wnt activity is directly correlated with the level of luciferase activity (determined using a simple assay). Compounds that inhibit Wnt signaling by reducing luciferase activity in these two cell lines are further tested biochemically. […] Compounds were further tested in a Viability assay using Wnt-dependent HCT116 cell line. Compounds were prepared as 10 mM stocks for each compound in DMSO. Dilutions were prepared in a 96-well plate in DMSO. The stock dilutions are as follows: 10 mM, 1 mM, 100 μM, 10 μM, 100 nM, and 10 nM. Plates were sealed and stored at −20° C. […] On the first day, Wnt3a-conditioned media (1:1) were added along with diluted compounds (1:100). […] The final concentrations should therefore be 100 μM, 10 μM, 1 μM, 100 nM, 10 nM, and 1 nM. On the second day, the media was removed and 75 μL of Passive Lysis Buffer (Promega) is added to each well. The plate was shaken at 130 rpm for 15 minutes. For the Steady Glo assay, 45 μL of the lysis was removed and added to a white 96-well plate containing 45 μL/well of Steady Glo solution (Promega). For the Cell Titer assay, 25 μL of the lysis was transferred to a white 96-well plate containing 25 μL/well of Cell Titer solution (Promega). Both Steady Glo and Cell Titer assays were read with a luminescence plate reader. When determining EC50, the Steady Glo values were divided by the Cell Titer values to normalize for cell number. All compounds were tested using the human cell line HEK STF293. This cell line carries a Wnt reporter (TCF/LEF1 promoter), which drives expression of the firefly luciferase protein. The level of Wnt activity is directly correlated with the level of luciferase activity (determined using a simple assay). Compounds that inhibit Wnt signaling by reducing luciferase activity in these two cell lines are further tested biochemically. […] Compounds were further tested in a Viability assay using Wnt-dependent HCT116 cell line. Compounds were prepared as 10 mM stocks for each compound in DMSO. Dilutions were prepared in a 96-well plate in DMSO. The stock dilutions are as follows: 10 mM, 1 mM, 100 μM, 10 μM, 100 nM, and 10 nM. Plates were sealed and stored at −20° C. […] On the first day, Wnt3a-conditioned media (1:1) were added along with diluted compounds (1:100). […] The final concentrations should therefore be 100 μM, 10 μM, 1 μM, 100 nM, 10 nM, and 1 nM. On the second day, the media was removed and 75 μL of Passive Lysis Buffer (Promega) is added to each well. The plate was shaken at 130 rpm for 15 minutes. For the Steady Glo assay, 45 μL of the lysis was removed and added to a white 96-well plate containing 45 μL/well of Steady Glo solution (Promega). For the Cell Titer assay, 25 μL of the lysis was transferred to a white 96-well plate containing 25 μL/well of Cell Titer solution (Promega). Both Steady Glo and Cell Titer assays were read with a luminescence plate reader. When determining EC50, the Steady Glo values were divided by the Cell Titer values to normalize for cell number. All compounds were tested using the human cell line HEK STF293. This cell line carries a Wnt reporter (TCF/LEF1 promoter), which drives expression of the firefly luciferase protein. The level of Wnt activity is directly correlated with the level of luciferase activity (determined using a simple assay). Compounds that inhibit Wnt signaling by reducing luciferase activity in these two cell lines are further tested biochemically. […] Compounds were further tested in a Viability assay using Wnt-dependent HCT116 cell line. Compounds were prepared as 10 mM stocks for each compound in DMSO. Dilutions were prepared in a 96-well plate in DMSO. The stock dilutions are as follows: 10 mM, 1 mM, 100 μM, 10 μM, 100 nM, and 10 nM. Plates were sealed and stored at −20° C. […]

[2] = test system: Wnt-dependent HCT116 cell line; test: Viability assay using Wnt-dependent HCT116 cell line (Cell Titer Glo); assay type: cell-based; conditions: Examples for Formulae (IV), (V), (VI), and (VII), HCT116 cells, read-out: Viability IC50 category
Description: All compounds were tested using the human cell line HEK STF293. This cell line carries a Wnt reporter (TCF/LEF1 promoter), which drives expression of the firefly luciferase protein. The level of Wnt activity is directly correlated with the level of luciferase activity (determined using a simple assay). Compounds that inhibit Wnt signaling by reducing luciferase activity in these two cell lines are further tested biochemically. […] Compounds were further tested in a Viability assay using Wnt-dependent HCT116 cell line. HEK293 cells were seeded in a 6-well plate at approximately 8.0×10^5 cells (2 mL per well). On the first day, Wnt3a-conditioned media (1:1) and compounds (1:100) were added to the plated cells. The final concentrations of compounds were 1 μM, 500 nM, and 100 nM. Vehicle (DMSO) and a Wnt3a-conditioned media plus Vehicle samples were also prepared as controls. Lysates were collected (with non-denaturing lysis buffer) after 24 hours incubation, and protein concentrations determined by Bradford Assay. Immunoblotting with an anti-beta-catenin antibody (equivalent amounts of protein/lane for each condition) were subsequently performed to determine beta-catenin levels. HCT116 cells were seeded at 2,500 cells/well in a 96-well dish (Volume: 100 μL/well). On the second day, the 10 mM stock solution of each test compound was thawed at room temperature. Dilutions of the test compound were prepared in DMSO in a V-bottom 96-well plate. The stock compound solution, DMSO-diluted compound solutions, and DMSO were further diluted 500-fold in cell culture media, and 100 μL of the compound- or DMSO-containing cell culture media was added to each well of the cells. […] The final DMSO concentration was 0.1% in all wells. On the fifth day, 150 μL of media was removed from each well. 50 μL/well Cell Titer Glo reagent (Promega) was added to each well. The plate was shaken at 130 rpm for 15 minutes at room temperature, and the cell viability was determined using a luminescence plate reader. All compounds were tested using the human cell line HEK STF293. This cell line carries a Wnt reporter (TCF/LEF1 promoter), which drives expression of the firefly luciferase protein. The level of Wnt activity is directly correlated with the level of luciferase activity (determined using a simple assay). Compounds that inhibit Wnt signaling by reducing luciferase activity in these two cell lines are further tested biochemically. […] Compounds were further tested in a Viability assay using Wnt-dependent HCT116 cell line. HEK293 cells were seeded in a 6-well plate at approximately 8.0×10^5 cells (2 mL per well). On the first day, Wnt3a-conditioned media (1:1) and compounds (1:100) were added to the plated cells. The final concentrations of compounds were 1 μM, 500 nM, and 100 nM. Vehicle (DMSO) and a Wnt3a-conditioned media plus Vehicle samples were also prepared as controls. Lysates were collected (with non-denaturing lysis buffer) after 24 hours incubation, and protein concentrations determined by Bradford Assay. Immunoblotting with an anti-beta-catenin antibody (equivalent amounts of protein/lane for each condition) were subsequently performed to determine beta-catenin levels. HCT116 cells were seeded at 2,500 cells/well in a 96-well dish (Volume: 100 μL/well). On the second day, the 10 mM stock solution of each test compound was thawed at room temperature. Dilutions of the test compound were prepared in DMSO in a V-bottom 96-well plate. The stock compound solution, DMSO-diluted compound solutions, and DMSO were further diluted 500-fold in cell culture media, and 100 μL of the compound- or DMSO-containing cell culture media was added to each well of the cells. […] The final DMSO concentration was 0.1% in all wells. On the fifth day, 150 μL of media was removed from each well. 50 μL/well Cell Titer Glo reagent (Promega) was added to each well. The plate was shaken at 130 rpm for 15 minutes at room temperature, and the cell viability was determined using a luminescence plate reader. […]

Row | Compound | IC50 ([2]; Homo sapiens, HCT-116) [µM] | IC50 [2] [µM] | IC50 ([1]; Homo sapiens, STF/293) [µM] | IC50 [1] [µM]
1 | CN(c1ncc(C(=O)O)o1)S(=O)(=O)c1ccc(Cl)cc1 [Example 37] |  | 0.2 to 0.5 |  | < 0.2
2 | CN(c1ncc(C(=O)Nc2nc(-c3ccccn3)cs2)o1)S(=O)(=O)c1ccc(Cl)cc1 [Example 38] |  | 0.5 to 1 |  | 0.2 to 0.5
3 | COc1ccc(S(=O)(=O)N(C)c2ncc(C(=O)Nc3nc(-c4ccccn4)cs3)o2)cc1 [Example 39] | 0.5 to 1 |  | 0.5 to 1 | 
4 | COc1ccc(S(=O)(=O)N(C)c2ncc(C(=O)O)o2)cc1 [Example 40] |  | 0.2 to 0.5 |  | 0.2 to 0.5
5 | CN(c1ncc(C(=O)O)o1)S(=O)(=O)c1ccc(C(F)(F)F)cc1 [Example 43] |  | < 0.2 |  | < 0.2
6 | CS(=O)(=O)c1ccccc1-c1ncoc1C(=O)Nc1nc(-c2ccccn2)cs1 [Example 44] |  | 0.5 to 1 |  | 1 to 10
7 | COc1cc(F)ccc1-c1ncoc1C(=O)Nc1nc(-c2ccccn2)cs1 [Example 46] |  | 0.5 to 1 |  | 0.5 to 1
8 | CS(=O)(=O)c1cccc(-c2ncoc2C(=O)Nc2nc(-c3ccccn3)cs2)c1 [Example 48] |  | 0.2 to 0.5 |  | 0.5 to 1
9 | Cc1nc(N(C)S(=O)(=O)c2ccccc2Cl)oc1C(=O)Nc1nc(-c2ccccn2)cs1 [Example 49] | 0.5 to 1 |  | 0.2 to 0.5 | 
10 | Cc1nc(N(C)S(=O)(=O)c2ccc(C(F)(F)F)cc2)oc1C(=O)Nc1nc(-c2ccccn2)cs1 [Example 50] |  | 0.2 to 0.5 |  | 0.2 to 0.5
11 | Cc1nc(N(C)S(=O)(=O)c2cccc(Cl)c2)oc1C(=O)Nc1nc(-c2ccccn2)cs1 [Example 51] | 0.5 to 1 |  | 0.5 to 1 | 
12 | Cc1nc(N(C)S(=O)(=O)c2ccc(Cl)cc2)oc1C(=O)Nc1nc(-c2ccccn2)cs1 [Example 52] | 0.5 to 1 |  | 0.5 to 1 | 
13 | CN(c1nc(C(F)(F)F)c(C(=O)Nc2nc(-c3ccccn3)cs2)o1)S(=O)(=O)c1ccc(F)cc1 [Example 54] | 1 to 10 |  | 1 to 10 | 
14 | CC(C)CS(=O)(=O)N(C)c1nc(-c2ccc(F)cc2)c(C(=O)Nc2nc(-c3ccccn3)cs2)o1 [Example 60] | < 0.2 |  | < 0.2 | 
15 | Cc1onc(-c2ccc(C(F)(F)F)c(F)c2)c1C(=O)Nc1nc(-c2ccccn2)cs1 [Example 62] |  | < 0.2 |  | 0.2 to 0.5
16 | Cc1onc(-c2ccc(C(F)(F)F)c(Cl)c2)c1C(=O)Nc1nc(-c2ccccn2)cs1 [Example 63] | 0.2 to 0.5 |  | 0.2 to 0.5 | 
17 | Cc1nnc(-c2ccc(-c3nc(C)oc3C(=O)Nc3nc(-c4ccccn4)cs3)cc2)o1 [Example 65] |  | < 0.2 |  | < 0.2
18 | Cc1nc(-c2ccc(-c3nnc(C(F)(F)F)o3)cc2)c(C(=O)Nc2nc(-c3ccccn3)cs2)o1 [Example 66] |  | < 0.2 |  | < 0.2

Further lines, with some results ahead:

Row | IC50 ([2]; Homo sapiens, HCT-116) [µM] | IC50 [2] [µM] | Compound | IC50 ([1]; Homo sapiens, STF/293) [µM] | IC50 [1] [µM]
19 | 0.5 to 1 |  | CN(C(=O)c1ccccc1F)c1ncc(C(=O)Nc2nc(-c3ccccn3)cs2)o1 [Example 36] | 0.2 to 0.5 | 
20 | 0.5 to 1 |  | CN(C)C(=O)c1ccc(-c2ncoc2C(=O)Nc2nc(-c3ccccn3)cs2)cc1 [Example 41] | 0.5 to 1 | 
21 | 0.5 to 1 |  | O=C(Nc1nc(-c2ccccn2)cs1)c1ocnc1-c1ccc(C(=O)N2CCOCC2)cc1 [Example 42] | 0.5 to 1 | 
22 |  | 1 to 10 | CN1CCN(c2cccc(-c3ncoc3C(=O)Nc3nc(-c4ccccn4)cs3)c2)CC1 [Example 45] |  | 1 to 10
23 | 0.2 to 0.5 |  | CS(=O)(=O)c1ccc(F)cc1-c1ncoc1C(=O)Nc1nc(-c2ccccn2)cs1 [Example 47] | 0.5 to 1 | 
24 |  | 0.5 to 1 | CN(c1nc(C(F)(F)F)c(C(=O)Nc2nc(-c3ccccn3)cs2)o1)S(=O)(=O)c1ccc(Cl)cc1 [Example 53] |  | 0.5 to 1
25 | 0.2 to 0.5 |  | CN(c1nc(C(F)(F)F)c(C(=O)Nc2nc(-c3ccccn3)cs2)o1)S(=O)(=O)c1ccc(C(F)(F)F)cc1 [Example 55] | 0.2 to 0.5 | 
26 |  | 0.5 to 1 | CN(c1nc(C(F)(F)F)c(C(=O)Nc2nc(-c3ccccn3)cs2)o1)S(=O)(=O)c1ccccc1Cl [Example 56] |  | 0.5 to 1
27 | < 0.2 |  | CCS(=O)(=O)N(C)c1nc(-c2ccc(F)cc2)c(C(=O)Nc2nc(-c3ccccn3)cs2)o1 [Example 57] | < 0.2 | 
28 | < 0.2 |  | CC(C)S(=O)(=O)N(C)c1nc(-c2ccc(F)cc2)c(C(=O)Nc2nc(-c3ccccn3)cs2)o1 [Example 58] | < 0.2 | 
29 |  | < 0.2 | CN(c1nc(-c2ccc(F)cc2)c(C(=O)Nc2nc(-c3ccccn3)cs2)o1)S(=O)(=O)c1ccc(C(F)(F)F)cc1 [Example 61] |  | < 0.2
